Here are results for 90 substances from patent US11707500B2, “Growth promoting peptides, and uses thereof” (NURITAS LIMITED, priority 2015, dated 2023).

The subject of test [1] is Human Dermal Fibroblasts (HDF). Description: BrdU cell proliferation assay. In kind it is cell-based. The settings on record: HDF incubated 24 h with 5, 0.5 or 0.05 μg/ml synthetic peptide; percentage of untreated control. Here is the method:
BrDu is incorporated into newly synthesised DNA strands of actively proliferating cells. Following partial denaturation of double stranded DNA, Brdu is detected immunochemically allowing the assessment of the population of cells which are synthesizing DNA.
Human Dermal Fibroblasts (HDF—Sigma 10605a) were seeded in a 96 well plate at 10,000 cells per well in DMEM containing 10% fetal calf serum (FCS), 1% Pen/strep, 1% L-glutamine and allowed to adhere for 24 h.
Following the initial 24 h incubation the cells were incubated with 5 μg/ml, 0.5 μg/ml or 0.05 μg/ml synthetic peptide for 24 h respectively.
After 18 h incubation with synthetic peptides 20 μl BrDu reagent was added to each well.
At 24 h incubation the cell were fixed and the amount of […] was measured using the BrdU Cell Proliferation Assay, all steps were carried out according to the manufacturer's instructions.
Results were calculated as a percentage of the untreated control. An increase in optical density reading indicates greatER incorporation of BrDu and increase cell proliferation.

The test system of test [2] is Human Dermal Fibroblasts (HDF). Briefly: BrdU cell proliferation assay. In kind it is cell-based. The settings on record: text on FIGS. 1-100; incubated with synthetic peptide 24 h; vs untreated control.

Take 505 (GALMLPHYNSR) [compound 505]: in test [1], the “INCREASE IN PROLIFERATION” value is listed as 118%. The same measure, in the same setting: for 453 (LQQAPPPPQR) [compound 453] the value was 25%. Still for that read-out and setting: for 365 (GAFTPLQYK) [compound 365] the value was 58%. Same read-out and setting: for 226 (IYGPDTGVDYKDNQMR) [compound 226] the value was 30%; for 124 (VIPVNGPGK) [compound 124], 15%; for “181 (TIKLPAGTTSYLVNQDDEEDLRLVD) [compound 181]”, 33%. As to 285 (DALEPDNR) [compound 285], the “INCREASE IN PROLIFERATION” value in test [1] worked out at 81%.

As to 465 (MFRR) [compound 465], the “INCREASE IN PROLIFERATION” value in test [1] amounted to 96%.

457 (FWMA) [compound 457]: in test [1], the “INCREASE IN PROLIFERATION” value came to 114%. For 471 (PHMPS) [compound 471], the “INCREASE IN PROLIFERATION” value in test [1] is reported as 38%. The same measure, in the same setting: for “112 (VVIIPAGHPVAITASSNLNLLGFG) [compound 112]” the value was 15%; for 222 (IDGYDTPVEGR) [compound 222], 110%; for 474 (DSINALEPDHR) [compound 474], 121%.

473 (WMKA) [compound 473]: the “INCREASE IN PROLIFERATION” value in test [1] was 41%.

With 480 (RHGEWGPSY) [compound 480], the “INCREASE IN PROLIFERATION” value in test [1] worked out at 102%. The same measure, in the same setting: for 504 (GALMLPHYN) [compound 504] the value was 119%; for 463 (HSPR) [compound 463], 100%. Still for that read-out and setting: for 495 (HPMS) [compound 495] the value was 68%; for 158 (NYDEGSEPRVPAQRE) [compound 158], 21%; for 467 (MPPS) [compound 467], 90%. As to 464 (HWFA) [compound 464], the “INCREASE IN PROLIFERATION” value in test [1] is 18%. Same read-out and setting: for 98 (LVIPVNGPGKFEA) [compound 98] the value was 49%. Same read-out and setting: for 270 (TVFNGVLRPGQLL) [compound 270] the value was 47%; for 83 (SRGPIYSNE) [compound 83], 32%; for 460 (HMPSS) [compound 460], 38%. The same measure, in the same setting: for 252 (SSEEGYYGEQQQQPGMTR) [compound 252] the value was 111%; for 482 (ILVDGSHDIER) [compound 482], 113%; for 479 (KTLDYWPSLR) [compound 479], 106%. Consider 403 (LGAPDVGHPM) [compound 403], for which the “INCREASE IN PROLIFERATION” value in test [1] came out at 51%. On the same count and under the same terms, for 472 (PRRF) [compound 472] the value was 77%; for 253 (SEEGYYGEQQQQPGMTR) [compound 253], 112%. The same measure, in the same setting: for 330 (VIPAGHPVAVR) [compound 330] the value was 18%. The same measure, in the same setting: for 452 (HPRPPKPDAPR) [compound 452] the value was 76%; for 337 (IEKILLEE) [compound 337], 8%. For the substance 85 (DDEEEEQGEEEINK) [compound 85], the “INCREASE IN PROLIFERATION” value in test [1] was 35%. As for 477 (IFEDAITIPGR) [compound 477], the “INCREASE IN PROLIFERATION” value in test [1] is given as 81%. Same read-out and setting: for 500 (WDPA) [compound 500] the value was 6%; for 114 (YPQLQDLDL) [compound 114], 119%. The same measure, in the same setting: for 257 (YYGEQQQQPGMTR) [compound 257] the value was 118%; for 359 (GAFTPLQYKSYQD) [compound 359], 15%; for 462 (HRRS) [compound 462], 15%.

On to 502 (RSQNIF) [compound 502], for which, in test [1], the “INCREASE IN PROLIFERATION” value turned out to be 68%.

As to 468 (MPRR) [compound 468], in test [1], the “INCREASE IN PROLIFERATION” value was found to be 82%. The same measure, in the same setting: for 499 (PNSM) [compound 499] the value was 113%; for 497 (MPMP) [compound 497], 58%. As for 74 (DEEEEQGEEEINK) [compound 74], the “INCREASE IN PROLIFERATION” value in test [1] is on record as 29%. Turning to MPPS [SEQ ID NO: 467], the “increase in HDF cell proliferation” value in test [2] is recorded as 90%. Same read-out and setting: for EDDEEEEQGEEEINK [SEQ ID NO: 84] the value was 20%. As for 146 (RHGEWRPSY) [compound 146], in test [1], the “INCREASE IN PROLIFERATION” value came to 80%. Same read-out and setting: for 248 (GYYGEQQQQPGMTR) [compound 248] the value was 86%; for 105 (LVIPVNGPGKF) [compound 105], 40%. With HRFR [SEQ ID NO: 461], in test [2], the “increase in HDF cell proliferation” value is 85%.

Turning to VGWGEQPWSPY [SEQ ID NO: 454], the “increase in HDF cell proliferation” value in test [2] worked out at 38%. For 249 (EEGYYGEQQQQPGMTR) [compound 249], in test [1], the “INCREASE IN PROLIFERATION” value came out at 30%. Regarding 341 (EVEERSQNIF) [compound 341], in test [1], the “INCREASE IN PROLIFERATION” value is listed as 83%. Regarding LRGFSK [SEQ ID NO: 501], the “increase in HDF cell proliferation” value in test [2] is reported as 43%.

Take MPRR [SEQ ID NO: 468]: the “increase in HDF cell proliferation” value in test [2] came out at 82%. As for 256 (YGEQQQQPGMTR) [compound 256], the “INCREASE IN PROLIFERATION” value in test [1] was found to be 117%. On to LDALEPDNRIESE [SEQ ID NO: 478], for which the “increase in HDF cell proliferation” value in test [2] amounted to 76%. 478 (LDALEPDNRIESE) [compound 478]: the “INCREASE IN PROLIFERATION” value in test [1] was 76%. The same measure, in the same setting: for 272 (NGVLRPGQL) [compound 272] the value was 97%. The same measure, in the same setting: for 461 (HRFR) [compound 461] the value was 85%; for 503 (YLRGFS) [compound 503], 125%; for 247 (EGYYGEQQQQPGMTR) [compound 247], 28%.

For the substance 470 (PHMP) [compound 470], in test [1], the “INCREASE IN PROLIFERATION” value is 119%.

Take ASSNLDLLGFG [SEQ ID NO: 73]: the “increase in HDF cell proliferation” value in test [2] was 16%. For 455 (FHMPP) [compound 455], the “INCREASE IN PROLIFERATION” value in test [1] is on record as 47%.

Consider NYDEGSEPRVPAQRE [SEQ ID NO: 158], for which the “increase in HDF cell proliferation” value in test [2] is listed as 21%. On the same count and under the same terms, for HPMS [SEQ ID NO: 495] the value was 68%; for HWF (HWFA) [SEQ ID NO: 464], 18%. Turning to 454 (VGWGEQPWSPY) [compound 454], in test [1], the “INCREASE IN PROLIFERATION” value was determined as 38%. In the case of MPMP [SEQ ID NO: 497], in test [2], the “increase in HDF cell proliferation” value is given as 58%.

GALMLPHYNSR [SEQ ID NO: 505]: the “increase in HDF cell proliferation” value in test [2] is on record as 118%. On to 97 (LVIPVNGPGKFE) [compound 97], for which the “INCREASE IN PROLIFERATION” value in test [1] was 26%. In the case of 84 (EDDEEEEQGEEEINK) [compound 84], the “INCREASE IN PROLIFERATION” value in test [1] came to 20%. In the case of “TIKLPAGTTSYLVNQDDEEDLRLVD [SEQ ID NO: 181]”, the “increase in HDF cell proliferation” value in test [2] amounted to 33%. Consider LVIPVNGPGK [SEQ ID NO: 121], for which the “increase in HDF cell proliferation” value in test [2] turned out to be 48%. As to 410 (YRELGAPDVGHPMSE) [compound 410], the “INCREASE IN PROLIFERATION” value in test [1] is given as 73%. Still for that read-out and setting: for 73 (ASSNLDLLGFG) [compound 73] the value was 16%.

For the substance WDP (WDPA) [SEQ ID NO: 500], the “increase in HDF cell proliferation” value in test [2] was 6%.

In the case of FHMPP [SEQ ID NO: 455], in test [2], the “increase in HDF cell proliferation” value was found to be 47%. In the case of IYGPDTGVDYKDNQMR [SEQ ID NO: 226], the “increase in HDF cell proliferation” value in test [2] turned out to be 30%.

EGYYGEQQQQPGMTR [SEQ ID NO: 247]: the “increase in HDF cell proliferation” value in test [2] is given as 28%. Consider HPRPPKPDAPR [SEQ ID NO: 452], for which the “increase in HDF cell proliferation” value in test [2] was found to be 76%.

As to 93 (ITASSNLNLLGFG) [compound 93], in test [1], the “INCREASE IN PROLIFERATION” value was determined as 26%. The same measure, in the same setting: for 501 (LRGFSK) [compound 501] the value was 43%; for 121 (LVIPVNGPGK) [compound 121], 48%. For YYGEQQQQPGMTR [SEQ ID NO: 257], in test [2], the “increase in HDF cell proliferation” value came out at 118%.

Regarding MFRR [SEQ ID NO: 465], the “increase in HDF cell proliferation” value in test [2] turned out to be 96%.

As to ITASSNLNLLGFG [SEQ ID NO: 93], in test [2], the “increase in HDF cell proliferation” value is reported as 26%.
